This is an account of results in PubChem BioAssay (NCI).

Molecules are shown by their SMILES.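 96-well plates; 48 h exposure; 5 concentrations. Endpoints by linear interpolation between flanking doses. Not reached: highest tested concentration assigned. TGI: total growth inhibition.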

The first assay relates to HCT-116 colon. Put plainly: NCI tumour cell line growth inhibition, 48 h.
On to `O=C(CSc1nnc(-c2ccc(N=Cc3ccc(Cl)cc3)cc2)o1)Nc1ccc(Cl)cc1Cl`, for which the TGI is 38.1 µM.
On the same count and under the same terms, the same measure for `COc1ccc(C2=Nc3ccccc3NC(=O)C2)cc1`: 42.3 µM; for `CCN(CC)CCCNc1nc(=O)[nH]c(C)c1C(=O)Nc1cccc2cc3ccccc3cc12`: > 100 µM; for `O=S(=O)(O)c1ccc(O)c2ncc(Cl)cc12`: > 100 µM.
On the same count and under the same terms, as for `COc1cc(/C=C/C(=O)c2ccc(NS(=O)(=O)c3cc([N+](=O)[O-])ccc3C)cc2)cc(OC)c1OC`, the figure is 6.49 µM; as for `CCOC(=O)C(=[N+]=[N-])C(=O)C1(C(=O)OCC)CCN(C(=O)c2ccccc2)C1=O` (stereo not drawn), > 100 µM.
Same read-out and setting: as for `NC(=O)N/N=C1\CCCCc2ccccc21`, the figure is > 10 µM; as for `CCOC(=O)c1ccc(N=C2C(=S)N(c3ccc(C(=O)OCC)cc3)C(=N)N2/N=C/c2ccccc2)cc1`, 30.5 µM.

In the next assay the test system is UACC-62 melanoma. Description: NCI tumour cell line growth inhibition, 48 h.
As to `O=C(COc1ccc2c(=O)cc(-c3ccccc3)oc2c1)N1CCN(c2ccccc2)CC1`, the TGI is > 100 µM.
Same read-out and setting: the same measure for `Cn1cnc(CCc2ccccc2)n1`: > 100 µM; for `CCOC(=O)c1c(N)sc2c1C(C(=O)OCC)CC2` (stereo not drawn): > 100 µM; for `O=C1C(Cl)=C(OCCCCl)C(=O)c2c(O)ccc(O)c21`: 3.9 µM.
Same read-out and setting: the same measure for `CC1=C(C(=O)O)N2C(=O)[C@@H](NC(=O)C(c3ccc(O)cc3)N3CSC(=S)N(C(C)C)C3)C2SC1` (stereo partly drawn): > 100 µM.
The same measure, in the same setting: the same measure for `COc1cc(OC)c2c(c1)C(=O)C(CC(C)O)=CC2=O` (stereo not drawn): 25.8 µM; for `Cc1csc(=S)n1OC(=O)NC1CCCCC1`: > 67.2 µM.
`O=C(CSc1nnc(-c2ccc(N=Cc3ccc(Cl)cc3)cc2)o1)Nc1ccc(Cl)cc1Cl` yielded a TGI of 60.3 µM.
In the case of `COc1ccc(C2=Nc3ccccc3NC(=O)C2)cc1`, the TGI is > 100 µM.
As to `CCN(CC)CCCNc1nc(=O)[nH]c(C)c1C(=O)Nc1cccc2cc3ccccc3cc12`, the TGI is > 100 µM.
Consider `O=S(=O)(O)c1ccc(O)c2ncc(Cl)cc12`, for which the TGI is > 100 µM.
In the case of `CCOC(=O)C(=[N+]=[N-])C(=O)C1(C(=O)OCC)CCN(C(=O)c2ccccc2)C1=O` (stereo not drawn), the TGI was > 100 µM.
The same measure, in the same setting: the same measure for `CCOC(=O)c1ccc(N=C2C(=S)N(c3ccc(C(=O)OCC)cc3)C(=N)N2/N=C/c2ccccc2)cc1`: 38.3 µM.

In a further assay the test system is UACC-257 melanoma. Put plainly: NCI tumour cell line growth inhibition, 48 h.
For `O=C(COc1ccc2c(=O)cc(-c3ccccc3)oc2c1)N1CCN(c2ccccc2)CC1`, the TGI is > 100 µM.
On the same count and under the same terms, as for `O=C(c1cccc2ccccc12)C1(Br)S(=O)(=O)OCCOS1(=O)=O`, the figure is > 100 µM; as for `Cn1cnc(CCc2ccccc2)n1`, > 100 µM; as for `CCOC(=O)c1c(N)sc2c1C(C(=O)OCC)CC2` (stereo not drawn), > 100 µM.
The compound `O=C1C(Cl)=C(OCCCCl)C(=O)c2c(O)ccc(O)c21` gave a TGI of 5.98 µM.
The same measure, in the same setting: as for `CC1=C(C(=O)O)N2C(=O)[C@@H](NC(=O)C(c3ccc(O)cc3)N3CSC(=S)N(C(C)C)C3)C2SC1` (stereo partly drawn), the figure is > 100 µM; as for `COc1cc(OC)c2c(c1)C(=O)C(CC(C)O)=CC2=O` (stereo not drawn), 30.7 µM; as for `Cc1csc(=S)n1OC(=O)NC1CCCCC1`, > 100 µM.
The same measure, in the same setting: the same measure for `N#CCc1nc2ccccc2c(=O)[nH]1`: > 100 µM; for `O=C(CSc1nnc(-c2ccc(N=Cc3ccc(Cl)cc3)cc2)o1)Nc1ccc(Cl)cc1Cl`: 71.1 µM.
Turning to `COc1ccc(C2=Nc3ccccc3NC(=O)C2)cc1`, the TGI was > 100 µM.
The same measure, in the same setting: as for `CCN(CC)CCCNc1nc(=O)[nH]c(C)c1C(=O)Nc1cccc2cc3ccccc3cc12`, the figure is > 100 µM.
Same read-out and setting: the same measure for `O=S(=O)(O)c1ccc(O)c2ncc(Cl)cc12`: > 100 µM.
Same read-out and setting: the same measure for `COc1cc(/C=C/C(=O)c2ccc(NS(=O)(=O)c3cc([N+](=O)[O-])ccc3C)cc2)cc(OC)c1OC`: 21.9 µM; for `CCOC(=O)C(=[N+]=[N-])C(=O)C1(C(=O)OCC)CCN(C(=O)c2ccccc2)C1=O` (stereo not drawn): > 100 µM; for `NC(=O)N/N=C1\CCCCc2ccccc21`: > 10 µM.

The test system of the next assay is TK-10 renal. Description: NCI tumour cell line growth inhibition, 48 h.
Regarding `O=C(COc1ccc2c(=O)cc(-c3ccccc3)oc2c1)N1CCN(c2ccccc2)CC1`, the TGI was > 100 µM.
Same read-out and setting: the same measure for `O=C(c1cccc2ccccc12)C1(Br)S(=O)(=O)OCCOS1(=O)=O`: > 100 µM; for `Cn1cnc(CCc2ccccc2)n1`: > 100 µM; for `CCOC(=O)c1c(N)sc2c1C(C(=O)OCC)CC2` (stereo not drawn): > 100 µM.
Same read-out and setting: as for `O=C1C(Cl)=C(OCCCCl)C(=O)c2c(O)ccc(O)c21`, the figure is 9.48 µM; as for `CC1=C(C(=O)O)N2C(=O)[C@@H](NC(=O)C(c3ccc(O)cc3)N3CSC(=S)N(C(C)C)C3)C2SC1` (stereo partly drawn), > 100 µM.
As for `COc1cc(OC)c2c(c1)C(=O)C(CC(C)O)=CC2=O` (stereo not drawn), the TGI is 34.1 µM.
In the case of `Cc1csc(=S)n1OC(=O)NC1CCCCC1`, the TGI was > 100 µM.
In the case of `N#CCc1nc2ccccc2c(=O)[nH]1`, the TGI was > 100 µM.
Still for that read-out and setting: as for `O=C(CSc1nnc(-c2ccc(N=Cc3ccc(Cl)cc3)cc2)o1)Nc1ccc(Cl)cc1Cl`, the figure is > 100 µM.
Still for that read-out and setting: the same measure for `COc1ccc(C2=Nc3ccccc3NC(=O)C2)cc1`: 66.4 µM.
On to `CCN(CC)CCCNc1nc(=O)[nH]c(C)c1C(=O)Nc1cccc2cc3ccccc3cc12`, for which the TGI was > 100 µM.
Still for that read-out and setting: as for `COc1cc(/C=C/C(=O)c2ccc(NS(=O)(=O)c3cc([N+](=O)[O-])ccc3C)cc2)cc(OC)c1OC`, the figure is 13.9 µM.
The same measure, in the same setting: as for `CCOC(=O)C(=[N+]=[N-])C(=O)C1(C(=O)OCC)CCN(C(=O)c2ccccc2)C1=O` (stereo not drawn), the figure is > 100 µM.
For the compound `NC(=O)N/N=C1\CCCCc2ccccc21`, the TGI was > 10 µM.
Still for that read-out and setting: the same measure for `CCOC(=O)c1ccc(N=C2C(=S)N(c3ccc(C(=O)OCC)cc3)C(=N)N2/N=C/c2ccccc2)cc1`: 62.2 µM.

A further assay concerns SF-295 CNS. Description: NCI tumour cell line growth inhibition, 48 h.
Regarding `O=C(COc1ccc2c(=O)cc(-c3ccccc3)oc2c1)N1CCN(c2ccccc2)CC1`, the TGI was > 100 µM.
For `O=C(c1cccc2ccccc12)C1(Br)S(=O)(=O)OCCOS1(=O)=O`, the TGI is > 100 µM.
Same read-out and setting: as for `Cn1cnc(CCc2ccccc2)n1`, the figure is > 100 µM.
Same read-out and setting: the same measure for `O=C1C(Cl)=C(OCCCCl)C(=O)c2c(O)ccc(O)c21`: 18.3 µM; for `CC1=C(C(=O)O)N2C(=O)[C@@H](NC(=O)C(c3ccc(O)cc3)N3CSC(=S)N(C(C)C)C3)C2SC1` (stereo partly drawn): > 100 µM.
In turn, `COc1cc(OC)c2c(c1)C(=O)C(CC(C)O)=CC2=O` (stereo not drawn) yielded a TGI of 27.4 µM.
Same read-out and setting: as for `Cc1csc(=S)n1OC(=O)NC1CCCCC1`, the figure is > 100 µM.
In the case of `N#CCc1nc2ccccc2c(=O)[nH]1`, the TGI was > 100 µM.
The same measure, in the same setting: as for `O=C(CSc1nnc(-c2ccc(N=Cc3ccc(Cl)cc3)cc2)o1)Nc1ccc(Cl)cc1Cl`, the figure is 68.1 µM; as for `COc1ccc(C2=Nc3ccccc3NC(=O)C2)cc1`, 47.8 µM.
The same measure, in the same setting: the same measure for `CCN(CC)CCCNc1nc(=O)[nH]c(C)c1C(=O)Nc1cccc2cc3ccccc3cc12`: > 100 µM; for `O=S(=O)(O)c1ccc(O)c2ncc(Cl)cc12`: > 100 µM.
The same measure, in the same setting: the same measure for `COc1cc(/C=C/C(=O)c2ccc(NS(=O)(=O)c3cc([N+](=O)[O-])ccc3C)cc2)cc(OC)c1OC`: 16.4 µM.
Regarding `CCOC(=O)C(=[N+]=[N-])C(=O)C1(C(=O)OCC)CCN(C(=O)c2ccccc2)C1=O` (stereo not drawn), the TGI was > 100 µM.
Still for that read-out and setting: the same measure for `CCOC(=O)c1ccc(N=C2C(=S)N(c3ccc(C(=O)OCC)cc3)C(=N)N2/N=C/c2ccccc2)cc1`: 70.4 µM.
